From patent publication US20190345558A1, “METHOD FOR DETERMINING SENSITIVITY TO A CDK4/6 INHIBITOR” (UNIVERSITÉ LIBRE DE BRUXELLES, priority 2016, published 2019) come the findings set out here.

In assay [1] the test system is HCC1806. Put plainly: BrdU DNA incorporation assay.
Experimental: One hour before fixation with methanol, 100 μM 5-Bromo-2′-deoxyuridine (BrdU, Sigma-Aldrich) and 4 μM 5-Fluoro-2′-deoxyuridine (FldU, Sigma-Aldrich) were added to the cells. Immuno-detection of DNA incorporated BrdU was performed. 4′,6-Diamidino-2-phenylindole, dilactate (DAPI, Thermo Fisher Scientific) solution (1 μg/ml) was used as nuclear counterstain and round coverslips were mounted in each well of the 96 well plate with ProLong Gold Antifade Mountant (Thermo Fisher Scientific). […] Culture plates were imaged with a Zeiss Axio Observer.Z1 wide-field microscope equipped with a 10/0.3×EC Plan Neofluar objective and an AxioCam HSm camera. For each well, a grid of 3×3 fields (each of them 660 μm×492 μm) was automatically defined using the Mark&Find option of the AxioVision software. […] Exposure times were chosen so as to maximize the signal while avoiding saturation. They were kept constant through all images within one experiment. A software-based autofocus was performed on the DAPI channel, using a general offset of 8-10 μm. A 10 μm offset was added for the A488 channel. Images were analyzed semi-automatically with a custom-made ImageJ macro. For each field of view, two masks were created, representing the areas positive for the DAPI or for both the DAPI and the BrdU stainings, respectively. Nuclei were then segmented within these masks using the “Analyze particles” function. The total number of nuclei and the area that they represent were recorded to compute the BrdU-positive to total nuclei ratios. The segmentation of the nuclei was verified visually and only values extracted from correctly segmented images were selected for further analysis. […] Each processed image was therefore systematically inspected to correct low counts and remove image with staining artefacts from the analysis. Images with less than 10 labeled nuclei were counted manually with the Image J cell counter plugin.
The test system of assay [2] is HCC1500. The assay can be described thus: BrdU DNA incorporation assay.
Experimental: (§1) One hour before fixation with methanol, 100 μM 5-Bromo-2′-deoxyuridine (BrdU, Sigma-Aldrich) and 4 μM 5-Fluoro-2′-deoxyuridine (FldU, Sigma-Aldrich) were added to the cells. Immuno-detection of DNA incorporated BrdU was performed. 4′,6-Diamidino-2-phenylindole, dilactate (DAPI, Thermo Fisher Scientific) solution (1 μg/ml) was used as nuclear counterstain and round coverslips were mounted in each well of the 96 well plate with ProLong Gold Antifade Mountant (Thermo Fisher Scientific). […] Culture plates were imaged with a Zeiss Axio Observer.Z1 wide-field microscope equipped with a 10/0.3×EC Plan Neofluar objective and an AxioCam HSm camera. For each well, a grid of 3×3 fields (each of them 660 μm×492 μm) was automatically defined using the Mark&Find option of the AxioVision software. […] Exposure times were chosen so as to maximize the signal while avoiding saturation. They were kept constant through all images within one experiment. A software-based autofocus was performed on the DAPI channel, using a general offset of 8-10 μm. A 10 μm offset was added for the A488 channel. Images were analyzed semi-automatically with a custom-made ImageJ macro. […] The total number of nuclei and the area that they represent were recorded to compute the BrdU-positive to total nuclei ratios. […] Images with less than 10 labeled nuclei were counted manually with the Image J cell counter plugin.
Assay [3] deals with MCF7. The assay can be described thus: BrdU DNA incorporation assay.
Experimental: as §1
Assay [4] deals with HCC1937. Put plainly: BrdU DNA incorporation assay.
Experimental: as §1
Assay [5] deals with BT20. Put plainly: BrdU DNA incorporation assay.
Experimental: as §1
Assay [6] relates to ZR751. The assay can be described thus: BrdU DNA incorporation assay.
Experimental: as §1
The subject of assay [7] is T47D. Put plainly: BrdU DNA incorporation assay.
Experimental: as §1
Assay [8] has as its system pRb phosphorylations. Put plainly: pRb phosphorylation in HCC1806 cells. The assay is classed as cell-based, Human. Conditions: not shown. The method, then:
Equal amounts of whole cell extract proteins were separated according to molecular mass and immunodetected. CDK4-containing complexes were co-immunoprecipited as described (Paternot et al., 2003, J Biol Chem, 278, 26533-40; Bockstaele et al., 2006, Mol Cell Biol, 26, 5070-85). For 2D gel electrophoresis, cells were lysed in a buffer containing 7 M urea and 2 M thiourea. Frozen tumor slides were solubilised in 30 mM Tris cold buffer pH 8.5 containing 7 M urea, 2 M thiourea and 4% CHAPS with continuous vortexing until defreezing and kept under agitation during 20 min. After centrifugation at 14000 rpm for 10 min at 4° C., proteins were quantified. An equal volume of 2-D-sample buffer (7 M urea, 2 M thiourea, 2% CHAPS, 0.4% 3-10 Pharmalytes and 0.4% DTT) was added to samples normalized at 150 μg proteins. Proteins were separated by isoelectric focusing on immobilized linear pH gradient strips (pH 5 to 8, Biorad) before being separated by SDS-PAGE and immunoblotted as described (Bockstaele et al., 2006, Mol Cell Biol, 26, 5070-85).

The subject of assay [9] is MDAMB361. The assay can be described thus: BrdU DNA incorporation assay.
Experimental: as §1
The test system of assay [10] is MDAMB231. The assay can be described thus: BrdU DNA incorporation assay.
Experimental: as §1
Assay [11] concerns HCC70. Put plainly: BrdU DNA incorporation assay.
Experimental: as §1
Assay [12] relates to breast cancer cell lines. The assay can be described thus: BrdU incorporation assay, panel of 20 cell lines. In general terms: Incorporation of labelled thymidine or its analogues reports DNA synthesis.
Experimental: as §1
The subject of assay [13] is SKBR3. The assay can be described thus: BrdU DNA incorporation assay.
Experimental: as §1
Assay [14] concerns HCC38. Put plainly: BrdU DNA incorporation assay.
Experimental: as §1
Assay [15] deals with MDAMB436. The assay can be described thus: BrdU DNA incorporation assay.
Experimental: as §1
In assay [16] the test system is HCC1954. Put plainly: BrdU DNA incorporation assay.
Experimental: as §1
Assay [17] has as its system MDAMB468. Put plainly: BrdU DNA incorporation assay.
Experimental: as §1
The subject of assay [18] is HCC202. The assay can be described thus: BrdU DNA incorporation assay. Conditions: Homo sapiens, HCC202, 24 h.
Experimental: as §1
The test system of assay [19] is HCC1569. The assay can be described thus: BrdU DNA incorporation assay.
Experimental: as §1
Assay [20] concerns BT474. Put plainly: BrdU DNA incorporation assay.
Experimental: as §1
Assay [21] concerns BT549. Put plainly: BrdU DNA incorporation assay.
Experimental: as §1
The subject of assay [22] is MDAMB134VI. The assay can be described thus: BrdU DNA incorporation assay.
Experimental: as §1

In the case of `CC[C@H](CO)Nc1nc(NCc2ccccc2)c2ncn(C(C)C)c2n1` [Roscovitine], the “effect of Roscovitine on the sensitivity of HCC1806 cells to PD0332991” value in assay [1] (2.5, 5, 10 μM Roscovitine with increasing concentrations of PD0332991, BrdU (FIG. 5)) was “dose-dependently increased the sensitivity”.

In the case of `CC(=O)c1c(C)c2cnc(Nc3ccc(N4CCNCC4)cn3)nc2n(C2CCCC2)c1=O` [PD0332991, palbociclib], the “sensitivity of the cell line to PD0332991” value is given as “sensitive” in assay [2] (HCC1500, basal-like); “sensitive” in assay [3] (MCF7, luminal); “insensitive” in [4] (HCC1937, basal-like); “sensitive” in assay [5] (BT20, basal-like); “sensitive” in assay [6] (ZR75-1); “sensitive” in assay [7] (luminal). The “sensitivity of the cell line to PD0332991” value in assay [9] (MDAMB361, HER2+) is recorded as “sensitive”; in assay [10] (MDAMB231, basal-like), “sensitive”; in assay [11] (HCC70, basal-like), “insensitive”; in assay [13] (SKBR3, HER2+), “sensitive”; in [14] (HCC38, basal-like) it was “sensitive”; in assay [15] (MDAMB436, basal-like), “insensitive”. Besides, the “sensitivity of the cell line to PD0332991” value in assay [16] (HCC1954, HER2+) is “sensitive”; in assay [17] (MDAMB468, basal-like), “insensitive”; in assay [20] (BT474, HER2+) it was “sensitive”; in assay [21] (BT459 as printed, basal-like), “insensitive”; in assay [22] (MDAMB134IV as printed, luminal), “sensitive”. The IC50 in assay [2] (Homo sapiens, HCC1500, 24 h) was 10 nM; in assay [3] (Homo sapiens, MCF7, 24 h) it was 15 nM; in assay [4] (Homo sapiens, HCC1937, 24 h), greater than 1000 nM; in assay [5] (Homo sapiens, BT-20, 24 h), 3 nM; in assay [6] (Homo sapiens, ZR-75-1, 24 h), 15 nM; in assay [7] (Homo sapiens, 24 h), 15 nM. In addition, the IC50 in assay [9] (Homo sapiens, MDA-MB-361, 24 h) was 10 nM; in assay [10] (Homo sapiens, MDA-MB-231, 24 h), 15 nM; in assay [11] (Homo sapiens, HCC70, 24 h), greater than 1000 nM; in assay [12] (Homo sapiens, read-out: IC50s with the BrdU incorporation assay) it was 5 to 50 nM; in assay [13] (Homo sapiens, SK-BR-3, 24 h) it was 15 nM; in assay [14] (Homo sapiens, HCC38, 24 h) it was 15 nM. Further, the IC50 in assay [15] (Homo sapiens, MDA-MB-436, 24 h) is greater than 1000 nM; in assay [16] (Homo sapiens, HCC1954, 24 h), 25 nM; in [17] (Homo sapiens, MDA-MB-468, 24 h), greater than 1000 nM; in [18] it was 25 nM; in [19] (Homo sapiens, HCC1569, 24 h), greater than 1000 nM; in [20] (Homo sapiens, BT-474, 24 h), 15 nM. For the same compound, the IC50 was greater than 1000 nM in assay [21] (Homo sapiens, BT-549, 24 h); 10 nM in assay [1] (Homo sapiens, HCC1806, 24 h); 3 nM in assay [22] (Homo sapiens, MDA-MB-134-VI, 24 h). The “inhibition of pRb phosphorylations in response to PD0332991” value in assay [8] is recorded as “marked inhibition”. Further, in [12] (BrdU incorporation), the “cell lines in which the proportion of DNA replicating cells was reduced in a concentration-dependent way” value is given as 13 out of these 20 cell lines. Moreover, the “sensitivity of the cell line to palbociclib” value in assay [19] (HCC1569) is listed as “insensitive”. In [1] (HCC1806 cells, 1 μM PD0332991 (FIG. 1C), average of 5 independent experiments), the “proportion of cells in S phase measured with the BrDU assay” value is recorded as 80 % of the control value.
